One test concerns human CTPS1 versus CTPS2. The test can be described thus: Human CTPS1 versus CTPS2 selectivity assessment by RapidFire/MS. The class given is biochemical. The note with it: fold selectivity between CTPS1 and CTPS2. The protocol:
The enzyme inhibitory activities against each target isoform of interest were determined for compounds using an optimised RapidFire high-throughput mass spectrometry (RF/MS) assay format. RF/MS assays for both human CTPS1 and CTPS2 were performed in assay buffer consisting of 50 mM HEPES (Merck), 20 mM MgCl2, 5 mM KCl, 1 mM DTT, 0.01% Tween-20, pH to 8.0 accordingly. Human full-length active C-terminal FLAG-His-tag CTPS1 (UniProtKB—P17812, CTPS[1-591]-[…], SEQ ID NO: 1) was obtained from Proteros biostructures GmbH. Human full length active C-terminal FLAG-His-Avi tagged CTPS2 (UniProtKB—Q9NRF8, CTPS2 [1-586]-[…], SEQ ID NO: 2) was obtained from Harker Bio.
Human CTPS (1 or 2) protein was prepared in 1× assay buffer to the final working protein concentration required for the reaction. A 2 uL volume per well of 2×CTPS (1 or 2) protein was mixed with 40 nL of compound using acoustic (ECHO) delivery and incubated for 10 minutes at 25° C. […] Each mixture was incubated for an appropriate amount of time per isoform within the determined linear phase of the reaction at 25° C. […]
In all cases, the enzyme converts UTP to CTP. […] Readout for data analysis was calculated as the ratio between the peak area of the product CTP and the internal standard ^13C9-^15N3-CTP. […]
Fold selectivity between CTPS1 and CTPS2 was subsequently calculated according to the following equation: […]

A further test concerns the target human CTPS1 (Homo sapiens (Human), UniProt P17812). The test can be described thus: Human CTPS1 enzyme inhibition, ADP-Glo Max assay. The format is biochemical. The note with it: Human CTPS1 Enzyme Inhibition data. The protocol:
The enzyme inhibitory activities of compounds CTPS1-IA and CTPS1-IB against CTPS1 were determined using the ADP-Glo™ Max assay (Promega, UK).
Assays for human CTPS1 were performed in 1× assay buffer containing 50 mM Tris, 10 mM MgCl2, 0.01% Tween-20, pH to 8.0 accordingly. Finally, immediately before use, L-cysteine was added to the 1× assay buffer to a final concentration of 2 mM. All reagents are from Sigma-Aldrich unless specified otherwise. Human full length active C-terminal FLAG-His8-tag CTPS1 (UniProtKB—P17812, CTPS[1-591]-[…], SEQ ID NO: 1) was obtained from Proteros biostructures GmbH.
3× human CTPS1 protein was prepared in 1× assay buffer to the final working protein concentration required for the reaction. […] The enzymatic reaction was then initiated by addition of a 2 uL per well volume of a pre-mixed substrate mix (UltraPure ATP from ADP-Glo™ Max kit (0.31 mM), GTP (0.034 mM), UTP (0.48 mM) and L-glutamine (0.186 mM)) and the mixture was incubated for an appropriate amount of time within the determined linear phase of the reaction at 25° C. under sealed plate conditions with constant agitation at 500 revolutions per minute (rpm). ADP-Glo™ Max reagent was added for 60 minutes (6 μL per well) and subsequently ADP-Go™ Max development reagent was added for 60 minutes (12 uL per well) prior to signal detection in a microplate reader (EnVision® Multilabel Reader, Perkin Elmer). […]

The subject of test [1] is human mantle cell lymphoma cell line. Nature of the test: Western blot after exposure to CTPS1 inhibitor. The format is cell-based. The following applies: 24 hour exposure versus control; GAPDH loading control. As to the method: Cells were incubated on ice for 40 minutes with lysis buffer then centrifuged at 11000 rpm for 30′. Total protein extracts were collected from supernatants and protein concentrations determined using a colorimetric assay. 30 μg of proteins were separated by SDS-PAGE using precast gels and transferred to membranes using the Trans-Blot Turbo system. Membranes were blocked for 1 hour in a 5% dry milk, TBS-Tween20 solution and incubated with primary antibodies overnight at 4° C. Membranes were incubated for at least 1 hour with secondary antibodies, either goat anti-mouse or goat anti-rabbit conjugated with peroxidase. Chemiluminescence was determined using the Clarity Western ECL Substrate on the Fusion FX imaging system.

The subject of test [2] is human mantle cell lymphoma cell lines. The test can be described thus: RNA sequencing after exposure to CTPS1 inhibitor. The class given is cell-based. The following applies: 24 hour exposure at IC50 versus control. The protocol:
RNA was obtained from cancer cell lines treated with CTPS1-IA at IC50 or control for 24 hours. Libraries were prepared from 10 ng total RNA. mRNA poly(A) tails were tagged with universal adapters, sample-specific barcodes and unique molecular identifiers using template switching reverse transcriptase. Barcoded cDNAs from multiple samples were then pooled, amplified and tagmented using a transposon-fragmentation approach which enriches for 3′ ends of cDNA. A library of 350-800 bp length was run on an Illumina NovaSeq 6000 using NovaSeq 6000 SP Reagent Kit 100 cycles (ref #20027464). Raw fastq pairs used for analysis matched the following criteria: the 16 bases of the first read correspond to 6 bases for a sample-specific barcode and 10 bases for a unique molecular identifier. The second read (58 bases) corresponds to the captured poly(A) RNAs sequence. Demultiplexing of these fastq pairs was performed to generate one single-end fastq for each of the 96 samples. fastq files were then aligned with bwa to reference mRNA sequences and the mitochondrial genomic sequence (UCSC). DGE profiles were generated by parsing the alignment files (.bam) and counting for each sample the number of unique molecular identifiers associated with each RefSeq gene. Reads aligned on multiple genes, containing more than one mismatch with the reference sequence, or containing a polyA pattern were discarded. […]

This is an account of results in patent US20250177394A1, “COMBINATIONS OF CTPS1 AND BCL2 INHIBITORS FOR CANCER” (Step Pharma S.A.S., priority 2022, published 2025).

Chain of human CTPS1 (P17812 whole entry): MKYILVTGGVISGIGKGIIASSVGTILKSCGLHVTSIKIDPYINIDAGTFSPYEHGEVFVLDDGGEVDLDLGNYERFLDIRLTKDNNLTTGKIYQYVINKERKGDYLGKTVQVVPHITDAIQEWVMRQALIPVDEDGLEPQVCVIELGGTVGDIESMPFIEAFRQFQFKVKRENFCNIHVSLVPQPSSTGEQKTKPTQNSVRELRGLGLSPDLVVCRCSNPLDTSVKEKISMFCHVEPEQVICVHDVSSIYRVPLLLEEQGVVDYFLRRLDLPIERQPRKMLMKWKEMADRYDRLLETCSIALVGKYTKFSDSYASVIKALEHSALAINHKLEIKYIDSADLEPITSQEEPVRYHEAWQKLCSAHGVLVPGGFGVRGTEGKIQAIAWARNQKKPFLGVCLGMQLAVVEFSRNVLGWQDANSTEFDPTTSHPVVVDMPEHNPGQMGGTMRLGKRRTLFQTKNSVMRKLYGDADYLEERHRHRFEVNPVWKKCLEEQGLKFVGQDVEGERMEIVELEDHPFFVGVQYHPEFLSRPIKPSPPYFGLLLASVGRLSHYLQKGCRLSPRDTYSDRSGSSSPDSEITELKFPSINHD

One may read the IC50 as the concentration that gives 50% inhibition. Lower therefore signals greater potency. `CCOc1cncc(-c2ccc(NC(=O)C3(c4ccnc(NS(=O)(=O)CC)n4)CCOCC3)nc2)n1` [CTPS1-IB, N-(5-(6-ethoxypyrazin-2-yl)pyridin-2-yl)-4-(2-(ethylsulfonamido)pyrimidin-4-yl)tetrahydro-2H-pyran-4-carboxamide] showed a Selectivity in the test on human CTPS1 versus CTPS2 above 60 fold. The same compound yielded a half-maximal inhibitory concentration (IC50) at human CTPS1 of at most 100 nM.

On to `CCOc1cncc(-c2ccc(NC(=O)C3(c4ccnc(NS(=O)(=O)C5CC5)n4)CCOCC3)nc2)n1` [CTPS1-IA, 4-(2-(cyclopropanesulfonamido)pyrimidin-4-yl)-N-(5-(6-ethoxypyrazin-2-yl)pyridin-2-yl)tetrahydro-2H-pyran-4-carboxamide], for which, in test [1], the BCL2 protein entry is listed as “increase” and the MCL1 protein result is listed as “decrease”. The compound further gave a Selectivity in the test on human CTPS1 versus CTPS2 above 60 fold. At human CTPS1, this compound displayed an IC50 of at most 100 nM. In test [2], the BCL2 transcripts result is recorded as “increase” and the MCL1 transcripts result is “decrease”.
